Data taken from a melting point compilation (Tetko et al.; mined from patent text by program, amines drawn as free bases though some values may be those of a salt).

Compound	melting point [°C]
COc1ccc(C(=O)Nc2c(C)c(C)c3c(c2C)C(c2ccc(C(C)C)cc2)C(C)(C)O3)cc1 (stereo not given)	202 to 205
CCCc1nc2c(N)nc3c(c2n1CCCCCC(=O)N1CCOCC1)CCCC3	162 to 163
CCCOc1ccc(C)cc1C(=N)OCC	148 to 150
CC(C)(N)c1ccc(-c2nc(Nc3cc(F)cc(F)c3)ncc2C#N)cc1	209
COc1ccc(C(OCC2OC(n3cnc4c(=O)[nH]c(NC(=O)Cc5ccc(Cl)c(Cl)c5)nc43)CC2O)(c2ccccc2)c2ccc(OC)cc2)cc1 (stereo not given)	150 to 155
CCOC(=O)C(Cc1cnc2ccc(OC)cc2c1)(NC(C)=O)C(=O)OCC	151 to 152
C=C1CCC2(Cc3ccccc3)C3Cc4ccc(O)cc4C2(CCN3CC2CC2)C1 (stereo not given)	212
CCCCCCCCCCc1sc(NC(=O)Nc2c(C(C)C)cccc2C(C)C)nc1C	101 to 108
CN(C(=O)N1Cc2ncn(Cc3ccccc3)c2CC1C(=O)O)c1ccccc1 (stereo not given)	220 to 222
CC(C)Nc1c(-c2ccc(S(C)(=O)=O)cc2)cnn(CC(F)(F)F)c1=O	173 to 174
Cc1cccc(-c2nc3ccc(OCCCl)cc3n2Cc2ccccc2)c1	88
Cc1ncoc1C(C)(O)c1cccs1 (stereo not given)	84 to 85
COc1ccc2cccc3c2c1CCC3CNC(C)=O (stereo not given)	126
CCC(CC)NC(=O)c1ccc(-c2scc(Br)c2CC(=O)OC)cc1	97 to 98
COc1ccc(C=O)c(Cl)c1Cl	112 to 113
CCc1cccc(C)c1CNc1cc(Br)cc2c1ncn2C	132 to 134
O=C(NC1N=C(c2ccccc2)c2ccccc2NC1=O)c1ccc2ccccc2c1 (racemic)	293 to 294
CC(C)[C@H]1COC(=O)N1C(=O)[C@@H](CC(=O)OCc1ccccc1)Cc1ccccc1	118 to 120
O=C1N(C(c2ccccc2)c2ccccc2)c2ccccc2C12COc1ccc(-c3cccnc3)cc12 (stereo not given)	204 to 207
CCOC(=O)c1cnc2c(c(C)nn2-c2ccccc2)c1N(Cc1cccnc1)S(=O)(=O)c1ccc(OC)cc1	148 to 150
COc1ccc(C2=NN(c3ccc([N+](=O)[O-])cc3)C(=O)[C@H]3CC=CC[C@@H]23)cc1OC (relative stereo)	179 to 182
CCCn1nc2c(N)nc3ccccc3c2c1CC(C)(C)NC(=O)C1CCCCC1	190 to 191
CS(=O)(=O)N1Cc2nc3c(N)nc4c(c3n2C(CCCNC(=O)N2CCOCC2)C1)CCCC4 (stereo not given)	149 to 160
CCOC(=O)c1ccccc1-n1cnc2c(C)c(C(=O)OCC)c(C)cc2c1=O	116 to 117
CC=CCN1C(=O)c2ccccc2Oc2ncccc21	79 to 81

Compound	melting point [°C]
CN(C)CC(=Cc1ccc(/C=C/C(=O)O)cc1)O[Si](C)(C)C(C)(C)C	207
CCOCCS(=O)(=O)C(F)(F)C(O)(Cn1cncn1)c1ccc(F)cc1F (stereo not given)	89 to 91
CC1=CC(O)C(OC(=O)c2ccccc2Cl)C(C)(C)CC1=O (stereo not given)	92.5 to 94
O=C1CCN(CCCN2c3cccc4cccc(c34)S2(=O)=O)CC1	108
COc1cc(C(O)CS(C)(=O)=O)cc(OC)c1N(C)C(C)=O (stereo not given)	175 to 177
CCCCCCCCCC[C@@]1(C)OO[C@@H]2C[C@H]1CC(=O)[C@@H]2C	40
CC(C)n1cc2c3c(cccc31)C1CC(C(=O)NC3CCCCC3)CN(C)C1C2 (stereo not given)	> 250
CN1CCN(c2cc3c(F)cccc3c(=O)[nH]2)CC1	238 to 239
Cc1c(C)c2c(c(C)c1O)CCC(C)(CCOc1ccc(CC3SC(=N)NC3=O)cc1)O2 (stereo not given)	175 to 180
CC(=O)c1cc(Cl)c2c(c1Cl)C(C)(C)CCS2(=O)=O	154 to 155
OCCOc1ccccc1-c1ccccc1	71 to 75
COc1nc(SC)nc(OC)c1C=CC(C)=O	112
COC(=O)C1Cc2ccccc2CC(C(=O)OC)C1=O (stereo not given)	100 to 110
O=C1C2=C(CCCC2)C(Cl)N1c1ccc(Cl)cc1F (stereo not given)	89 to 90
C#CCN(C(C)C)C(C)CC1=C2c3ccc(OC)cc3CCC2CCNC1=O (stereo not given)	146 to 148
COc1cccc2c1CNC2	58.5 to 60
CCCOc1ccc(F)c2c(=O)c(-c3ccc(OC)cc3)c(CN3CCN(c4ccccn4)CC3)[nH]c12	211 to 212
OCc1cn2c(n1)CN=C(c1ccccn1)c1cc(Br)ccc1-2	176 to 178
CC(=O)N1CCc2cc(C(=O)CCCCCl)ccc21	90 to 91
N#CC1C=Cc2cc(Cl)ccc2N1C(=O)c1ccccc1 (stereo not given)	141 to 143
CCSCCCNc1c(S(=O)(=O)C(F)(F)F)c(C#N)nn1-c1c(Cl)cc(C(F)(F)F)cc1Cl	80
Cc1n[nH]c(C)c1Oc1cc(C#N)cc(C#N)c1	182 to 185
Oc1nc2ccc(Cl)cc2nc1O	> 260
CN1CCN(C2CCCc3nc4ccccc4c(N)c32)CC1 (stereo not given)	200 to 202
COC(=O)c1nc(-c2ccc(Cl)c(OC)c2F)cc(NC(C)=O)c1O	168 to 172

Compound	melting point [°C]
Brc1ccc2scc(Br)c2c1	95 to 97
O=C(O)CN1C(=O)[C@@H](NC(CCc2ccccc2)C(=O)O)CSC1c1ccccc1 (stereo not given in full)	132 to 138
NNC(=O)c1ccc(OCc2ccccc2)cn1	140 to 142
COC(=O)C=C[C@@H](Cc1cn(CC=Cc2ccccc2)c2ccccc12)NC(=O)OC(C)(C)C	119 to 121
COC(=O)[C@H](Cc1ccc(O)cc1)NC(=O)Cc1ccccc1	101
CC(=O)N1CC(C)c2c1cc(C)c(O)c2C (stereo not given)	204 to 205
O=C(CCCCC1CCSS1)N1CCSCC1 (stereo not given)	31 to 32
CC(F)(F)C1(O)c2cc(Cl)ccc2Nc2ncccc21 (stereo not given)	188 to 190
CC(C)(C)OC(=O)N1CCC[C@H]1CNc1ccc2ncc(I)n2n1	138 to 139
CC(C)C1NC(=O)CN1C(=O)CNC(=O)CN1CCCC1=O (stereo not given)	104 to 106
N#Cc1cccc(-c2cnc3cnc(-c4ccc(O)cc4)nc3c2)c1	> 268
COC(=O)c1c2n(c3ccccc13)Cc1ccccc1N1CCN(C)CC21 (stereo not given)	157 to 159
O=C1c2ccccc2C(=O)N1CC#Cc1ccc(Cl)cc1C(O)c1ccccc1F (stereo not given)	158 to 160
C#Cc1ccc2c(c1)C(c1ccccc1F)=NC(C)c1c(C(=O)OCC)ncn1-2 (stereo not given)	212 to 214
CC(C)(Cc1ccc(OCC(=O)O)cc1)NS(=O)(=O)c1ccc(Cl)cc1	177 to 178
COc1ccc(C(=O)Nc2ccc3c(c2)CCC3=O)cc1	237 to 238
CCOC(=O)c1cn(CC)c2cc(-c3csc(CN(CC)C(C)=O)n3)c(F)cc2c1=O	160 to 161
O=C1CNC(c2ccc(Cl)cc2)=NN1	> 260
CS(=O)(=O)c1nnc(-c2ccnc(Nc3cccc(C(F)(F)F)c3)c2)o1	105 to 106
CC(=O)N[C@H]1CC[C@H](c2ccc(N)cc2)CC1	195 to 196
CCSC1=N[C@@H](c2ccccc2)[C@H](c2ccccc2)N1 (relative stereo)	130 to 132
NC(=S)NN=CC=Cc1ccccc1	137 to 139
O=C1NC(=O)C2(CCCN3CCN(c4ccc(Cl)cc4)CC3)C=CC=CC12 (stereo not given)	120
COc1ccccc1N1CCN(CCCNC(=O)c2cccc3c(=O)c(C)c(C4CCC(C)CC4)oc23)CC1 (stereo not given)	166
N#Cc1ccc2[nH]cc(CCCCN3CCN(c4ccc5oc(C(=O)NO)cc5c4)CC3)c2c1	198 to 199

Compound	melting point [°C]
C=CCOC(=O)c1c(C)nc2c(cnn2Cc2ccccc2)c1N	108
CC(C)(C)NS(=O)(=O)Cc1cc(Br)c(NC(=O)C(F)(F)F)c(Br)c1	166 to 167
CCOP(=O)(/C=C/c1cn(-c2ccccc2)nc1OCc1ccc(OCc2nc(N3CCCCC3)sc2C)c(OC)c1)OCC	95 to 96
CCN=C(N)Nc1cnn(C(C)CCC(=N)NNC(C)=O)n1 (stereo not given)	136 to 138
Cn1cc(-c2cccc(Br)c2)c(=O)c(-c2cccc(Br)c2)c1	216
COc1cc(I)cc(C(N)=O)c1	175 to 176
COC(=O)c1c(Cl)cc(Cl)cc1NC(=O)C(C)c1ccccc1 (stereo not given)	83 to 84
CCCCc1nnc(SCc2ccc(Cl)cc2)n1Cc1ccc(OC(C(=O)O)c2ccccc2Cl)cc1 (stereo not given)	100 to 102
ON1C=CN(c2ccccc2)N1	284 to 285
COc1ccc(C(=O)c2c(Cc3ccccc3)sc3cc(OC)ccc23)cc1	110 to 112
CON=Cc1cc(-n2c(=O)cc(C(F)(F)F)n(C)c2=O)c(F)cc1Cl	141 to 142
CC(=O)C1CCC2C3CCC4CC(C(C(=O)O)C(=O)O)CCC4(C)C3CCC12C (stereo not given)	214 to 215
CC(=O)NCc1ccc(CN2CCN(c3cnccn3)CC2)cc1	118 to 119
OC(c1ccc(Cl)cc1)(c1ccc(Cl)cc1)c1ccns1	118 to 120
O=C(Nc1nccs1)c1nc(-c2cccc3ccccc23)[nH]c1-c1ccc(C(F)(F)F)cc1	222 to 223
CCCNC(=Nc1ccc(Cl)cc1)Nc1ncccc1OCc1c(F)cccc1F	99 to 100
CCCn1cc(C(=O)O)c(=O)c2cnc(N3CCN(C)CC3)nc21	254 to 257
N#Cc1ccc(N2C(=O)C3C(F)CCN3C2=O)c2ccccc12 (stereo not given)	228 to 230
O=Cc1cnc(Br)cn1	56 to 58
O=C(c1ccc(-n2ccc(C(F)(F)F)n2)cc1C(F)(F)F)N1Cc2cccnc2Nc2ccccc21	127 to 129
C=CCc1cc2c(c(CC=C)c1O)CCC(=O)N2CCO	106 to 108
Cc1nc(C)c(C(=O)NC(C)c2ccccc2)cc1CCl (stereo not given)	165
CC1(C)OC(=O)Nc2ccc(-c3ccc(F)cc3)cc21	232 to 233
Cc1ccc(F)cc1C(=O)Nc1ccc(C(=O)N2Cc3cccn3Cc3ccccc32)cc1	170 to 180
Cc1ccc(-c2nc(CCCC#N)c(C(F)(F)F)o2)cc1	41 to 42.5
